From patent US8003847B2, “Non-human mutant mammals deficient in Sigma receptors and their applications” (Laboratorios Del Dr. Esteve, S.A., priority 2002, dated 2011)

Experiments:
[1] = target: type-2 Sigma receptors (Homo sapiens, UniProt Q5BJF2); settings: type-2 Sigma receptor, result in words; cited from earlier work
[2] = target: type-1 Sigma receptors (Homo sapiens, UniProt Q99720); settings: type-1 Sigma receptor, result in words; cited from earlier work
[3] = tested on: mouse Sigma-1 receptor; assay: specific binding test to the [3H]-pentazocine ligand, brain membrane fraction; settings: brain membranes of homozygous mutant (-/-) mice; 37° C., 130-170 minutes
Procedure: Fourthly, the activity (function) of the mouse Sigma-1 receptor was evaluated by a specific binding test to the [^3H]-pentazocine ligand. Briefly, the brains of mutant (−/−), heterozygous (+/−) and wild (+/+) mice were homogenised and the homogenisations ere centrifuged several times at different speeds to obtain the membrane fraction. Then samples of the membrane fraction obtained were incubated with the [^3H]-pentazocine radioligand in optimal binding conditions for this receptor (37° C., for 130-170 minutes), filtrating the samples, washing them and reading the radioactivity count present in the filtrate (see DeHaven-Hudkins D. L., Fleissner L. C., Ford-Rice, F. Y. (1992) Characterization of the binding of [3H]-Pentazocine to sigma recognition sites in guinea pigs brain. European Journal of Pharmacology 227:371-378, hereinafter DeHaven-Hudkins).

[4] = target: Sigma-1 receptor (Mus musculus, UniProt O55242); settings: in vivo
Procedure: Fifthly, the function of the Sigma-1 receptor was evaluated according to known behavioral paradigms and protocols.

Chain of type-1 Sigma receptors (Q99720 whole entry): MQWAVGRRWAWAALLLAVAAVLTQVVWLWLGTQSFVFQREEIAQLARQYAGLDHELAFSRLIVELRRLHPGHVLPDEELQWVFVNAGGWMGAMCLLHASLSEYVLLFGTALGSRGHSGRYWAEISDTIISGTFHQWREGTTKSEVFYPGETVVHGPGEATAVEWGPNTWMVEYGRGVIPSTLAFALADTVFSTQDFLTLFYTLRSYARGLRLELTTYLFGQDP
Chain of type-2 Sigma receptors (Q5BJF2 whole entry): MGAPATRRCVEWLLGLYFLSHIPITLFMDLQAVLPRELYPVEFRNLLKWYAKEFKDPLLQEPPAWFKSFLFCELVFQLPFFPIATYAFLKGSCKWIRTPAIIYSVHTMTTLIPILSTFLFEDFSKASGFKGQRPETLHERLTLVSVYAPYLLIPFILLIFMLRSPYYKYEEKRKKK
Chain of Sigma-1 receptor (O55242 whole entry): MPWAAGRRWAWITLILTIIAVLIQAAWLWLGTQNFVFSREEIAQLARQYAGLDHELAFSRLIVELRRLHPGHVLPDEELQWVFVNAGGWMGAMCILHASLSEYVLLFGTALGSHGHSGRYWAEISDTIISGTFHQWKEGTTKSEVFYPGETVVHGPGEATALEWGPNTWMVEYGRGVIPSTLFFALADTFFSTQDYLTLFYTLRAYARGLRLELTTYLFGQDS

| Molecule | affinity [1] | affinity [2] | also measured |
| --- | --- | --- | --- |
| CC(C)=CCN1CCC2(C)c3cc(O)ccc3CC1C2C (single isomer, unassigned; (+)) [(+)-pentazocine] | low affinity | high affinity | – |
| [3H]c1cc2c(c([3H])c1O)[C@@]1(C)CCN(CC=C(C)C)[C@@H](C2)[C@H]1C [[^3H]-pentazocine] | – | – | specific binding of radioligand (activity/function of receptor) [3]: lack of activity (function) |
| O=C(CCCN1CCC(O)(c2ccc(Cl)cc2)CC1)c1ccc(F)cc1 [haloperidol] | high to moderate affinity | – | – |
| C[C@@H]1CN(CCCn2c3ccccc3c3ccccc32)C[C@H](C)N1 [rimcazole] | – | high affinity | – |
| (+)-SKF10047 | low affinity | – | – |
| N-allylnormetazocine [SKF-10047] | – | high affinity | hyperactivity (hypermotility) response [4]: Statistically significant differences have only been observed with wild mice |
